Active and inactive are the calls of the source. No cut-off for these calls is given here.
Experiments:
HGC-27 [1] = assay: Downregulation of SRSF1 mRNA expression in human HGC-27 cells incubated for 24 hrs by SYBR green dye based RT-qPCR analysis; type: functional, cell-based; details: dose 0.5-2 µM
AGS [2] = assay: Downregulation of SRSF1 mRNA expression in human AGS cells incubated for 24 hrs by SYBR green dye based RT-qPCR analysis; type: functional, cell-based; details: dose 0.5-2 µM
HepG2 = assay: Antiproliferative activity against human HepG2 cells assessed as inhibition of cell proliferation incubated for 72 hrs by MTT assay; type: functional, cell-based; details: HepG2, 72 h
A549 = assay: Antiproliferative activity against human A549 cells assessed as inhibition of cell proliferation incubated for 72 hrs by MTT assay; type: functional, cell-based; details: A549, 72 h
[3] = Antiproliferative activity against human LO2 cells assessed as inhibition of cell proliferation incubated for 72 hrs by MTT assay; type: toxicity, cell-based, L02
[4] = Selectivity index, ratio of IC50 for antiproliferative activity against human LO2 cells to IC50 for antiproliferative activity against human HGC-27 cells; type: toxicity, cell-based; details: LO2 cells and HGC-27 cells, read-out: Ratio IC50
[5] = Selectivity index, ratio of IC50 for antiproliferative activity against human LO2 cells to IC50 for antiproliferative activity against human AGS cells; type: cell-based; details: LO2 cells and AGS cells, read-out: Ratio IC50
HGC-27 [6] = assay: Induction of apoptosis in human HGC-27 cells assessed as viable cells at 0.5 uM incubated for 48 hrs by annexin V-FITC and PI staining based flow cytometry analysis (reference value: 91.8%); type: functional; details: read-out: Activity
HGC-27 [7] = assay: Induction of apoptosis in human HGC-27 cells assessed as early apoptotic cells at 0.5 uM incubated for 48 hrs by annexin V-FITC and PI staining based flow cytometry analysis (reference value: 3.13%); type: functional
HGC-27 [8] = assay: Induction of apoptosis in human HGC-27 cells assessed as necrotic cells at 1 uM incubated for 48 hrs by annexin V-FITC and PI staining based flow cytometry analysis (reference value: 0.062%); type: functional
HGC-27 [9] = assay: Induction of apoptosis in human HGC-27 cells assessed as viable cells at 2 uM incubated for 48 hrs by annexin V-FITC and PI staining based flow cytometry analysis (reference value: 91.8%); type: functional; details: read-out: Activity
HGC-27 [10] = assay: Induction of apoptosis in human HGC-27 cells assessed as late apoptotic cells at 2 uM incubated for 48 hrs by annexin V-FITC and PI staining based flow cytometry analysis (reference value: 5.02%); type: functional
AGS [11] = assay: Induction of apoptosis in human AGS cells assessed as late apoptotic cells at 0.5 uM incubated for 48 hrs by annexin V-FITC and PI staining based flow cytometry analysis (reference value: 3.15%); type: functional
AGS [12] = assay: Induction of apoptosis in human AGS cells assessed as early apoptotic cells at 1 uM incubated for 48 hrs by annexin V-FITC and PI staining based flow cytometry analysis (reference value: 4.44%); type: functional
AGS [13] = assay: Induction of apoptosis in human AGS cells assessed as late apoptotic cells at 1 uM incubated for 48 hrs by annexin V-FITC and PI staining based flow cytometry analysis (reference value: 3.15%); type: functional
AGS [14] = assay: Induction of apoptosis in human AGS cells assessed as necrotic cells at 1 uM incubated for 48 hrs by annexin V-FITC and PI staining based flow cytometry analysis (reference value: 0.44%); type: functional
AGS [15] = assay: Induction of apoptosis in human AGS cells assessed as late apoptotic cells at 2 uM incubated for 48 hrs by annexin V-FITC and PI staining based flow cytometry analysis (reference value: 3.15%); type: functional
AGS [16] = assay: Induction of apoptosis in human AGS cells assessed as necrotic cells at 2 uM incubated for 48 hrs by annexin V-FITC and PI staining based flow cytometry analysis (reference value: 0.44%); type: functional
HGC-27 [17] = assay: Induction of apoptosis in human HGC-27 cells assessed as increase in cleaved PARP expression at 0.5 to 2 uM incubated overnight by Western blotting analysis; type: functional, cell-based; details: dose 0.5-2 µM
AGS [18] = assay: Induction of apoptosis in human AGS cells assessed as increase in cleaved PARP expression at 0.5 to 2 uM incubated overnight by Western blotting analysis; type: functional, cell-based; details: dose 0.5-2 µM
HGC-27 [19] = assay: Induction of apoptosis in human HGC-27 cells assessed as increase in cleaved caspase-3 expression at 0.5 to 2 uM incubated overnight by Western blotting analysis; type: functional, cell-based; details: dose 0.5-2 µM
HGC-27 [20] = assay: Induction of cell cycle arrest in human HGC-27 cells assessed as increase in S phase ratio at 0.5 to 2 uM incubated for 24 hrs by staining based flow cytometric analysis ( Rvb = 50.19%); type: functional; details: dose 0.5-2 µM
HGC-27 [21] = assay: Induction of cell cycle arrest in human HGC-27 cells assessed as increase in P21 expression at 0.5 to 2 uM by Western blotting analysis; type: functional, cell-based; details: dose 0.5-2 µM
HGC-27 [22] = assay: Induction of cell cycle arrest in human HGC-27 cells assessed as reduction in CyclinE2 expression at 0.5 to 2 uM by Western blotting analysis; type: functional, cell-based; details: dose 0.5-2 µM
HGC-27 [23] = assay: Antitumor activity against human HGC-27 cells xenografted in male BALB/c nude mouse assessed as tumor growth suppression administered intraperitoneally every day for 15 days; type: functional, cell-based; details: dose 25-100 mg/kg, route ip, time 15.0 day
HGC-27 [24] = assay: Downregulation of SRSF1 mRNA expression in human HGC-27 cells at 2 uM incubated for 24 hrs; type: functional, cell-based
HGC-27 [25] = assay: Upregulation of BECN1 mRNA expression in human HGC-27 cells at 2 uM incubated for 24 hrs; type: functional, cell-based
HGC-27 [26] = assay: Upregulation of MAP1LC3B mRNA expression in human HGC-27 cells at 2 uM incubated for 24 hrs; type: functional, cell-based
HGC-27 [27] = assay: Downregulation of RNA splicing pathway in human HGC-27 cells at 2 uM incubated for 24 hrs by KEGG enrichment analysis; type: functional, cell-based
HGC-27 [28] = assay: Downregulation of RNA splicing pathway in human HGC-27 cells at 2 uM incubated for 24 hrs by GESA; type: functional, cell-based
AGS [29] = assay: Downregulation of SRSF1 protein level in human AGS cells at 0.5 to 2 uM by Western blotting analysis; type: functional, cell-based; details: dose 0.5-2 µM
HGC-27 [30] = assay: Downregulation of Bcl-xl protein level in human HGC-27 cells at 0.5 to 2 uM by Western blotting analysis; type: functional, cell-based; details: dose 0.5-2 µM
AGS [31] = assay: Downregulation of Bcl-xl protein level in human AGS cells at 0.5 to 2 uM by Western blotting analysis; type: functional, cell-based; details: dose 0.5-2 µM
HGC-27 [32] = assay: Induction of autophagy in human HGC-27 cells assessed as upregulation of ATG5 protein level at 0.5 to 2 uM incubated for 48 hrs by Western blotting analysis; type: functional, cell-based; details: dose 0.5-2 µM
HGC-27 [33] = assay: Induction of autophagy in human HGC-27 cells assessed as upregulation of LC3 I protein level at 0.5 to 2 uM incubated for 48 hrs by Western blotting analysis; type: functional, cell-based; details: dose 0.5-2 µM
AGS [34] = assay: Induction of autophagy in human AGS cells assessed as downregulation of P62 protein level at 0.5 to 2 uM incubated for 48 hrs by Western blotting analysis; type: functional, cell-based; details: dose 0.5-2 µM
[35] = Toxicity in male ICR mouse assessed as animal death at 1 g/Kg, ip measured after 7 days; type: organism-based; details: in vivo, 1000 mg/kg, 168 h, time 7 day
[36] = Acute toxicity in male ICR mouse assessed as lethal dose administered as ip; details: in vivo

SMILES: CC(C)[C@]12O[C@H]1[C@@H]1O[C@]13[C@]1(O[C@H]1C[C@H]1C4=C(CC[C@@]13C)C(=S)OC4)[C@@H]2O
- Activity (HGC-27 [1]): Dose-dependent-effect
- Activity (AGS [2]): Dose-dependent-effect
- IC50 (HepG2): 350 nM
- IC50 (A549): 6930 nM
- IC50 at 72 h [3]: 2860 nM
- selectivity ratio [4]: 6.56
- selectivity ratio [5]: 4.55
- viability at 0.5 µM (HGC-27 [6]): 85.9%
- Activity (HGC-27 [7]): 3.5%
- Activity (HGC-27 [8]): 0.11%
- viability at 2 µM (HGC-27 [9]): 52%
- Activity (HGC-27 [10]): 19.7%
- Activity (AGS [11]): 7.89%
- Activity (AGS [12]): 17.2%
- Activity (AGS [13]): 17%
- Activity (AGS [14]): 0.73%
- Activity (AGS [15]): 31.7%
- Activity (AGS [16]): 0.82%
- Activity (HGC-27 [17]): Active
- Activity (AGS [18]): Active
- Activity (HGC-27 [19]): Active
- Activity (HGC-27 [20]): 75.34%
- Activity (HGC-27 [21]): Active
- Activity (HGC-27 [22]): Active
- Activity (HGC-27 [23]): Dose-dependent-effect
- Activity (HGC-27 [24]): Active
- Activity (HGC-27 [25]): Active
- Activity (HGC-27 [26]): Active
- Activity (HGC-27 [27]): Active
- Activity (HGC-27 [28]): Active
- Activity (AGS [29]): Active
- Activity (HGC-27 [30]): Active
- Activity (AGS [31]): Active
- Activity (HGC-27 [32]): Active
- Activity (HGC-27 [33]): Active
- Activity (AGS [34]): Active
- Activity [35]: Non-toxic
- LD50 [36]: > 1000 mg/kg
